Test results published in patent publication US12187722B2, “Small molecule inhibitors of TEAD transcription factors” (The General Hospital Corporation, priority 2019, dated 2025).
Values joined by “and” are separate entries in the source; they are usually repeats but may differ in a detail not shown here. Equal values may be shown once.

target: TEAD2 (Homo sapiens (Human), UniProt Q15562); assay: In vitro palmitoylation (TEAD2 autopalmitoylation, streptavidin blot); format: biochemical; conditions: compound at 10 μM; Table 2
Procedure, shortened: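 Autopalmitoylation read by streptavidin-HRP Western blot after CuSO4/TBTA/TCEP click with 100 μM biotin-azide, 1 h RT, with His-HRP probed separately. Before that, TEAD2 protein (GST or His6, 500 ng) given compound for 15 min then 1 μM alkyne palmitoyl-CoA for 30 min; percent inhibition versus DMSO-treated samples.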

Sequence of TEAD2 (Q15562 whole entry): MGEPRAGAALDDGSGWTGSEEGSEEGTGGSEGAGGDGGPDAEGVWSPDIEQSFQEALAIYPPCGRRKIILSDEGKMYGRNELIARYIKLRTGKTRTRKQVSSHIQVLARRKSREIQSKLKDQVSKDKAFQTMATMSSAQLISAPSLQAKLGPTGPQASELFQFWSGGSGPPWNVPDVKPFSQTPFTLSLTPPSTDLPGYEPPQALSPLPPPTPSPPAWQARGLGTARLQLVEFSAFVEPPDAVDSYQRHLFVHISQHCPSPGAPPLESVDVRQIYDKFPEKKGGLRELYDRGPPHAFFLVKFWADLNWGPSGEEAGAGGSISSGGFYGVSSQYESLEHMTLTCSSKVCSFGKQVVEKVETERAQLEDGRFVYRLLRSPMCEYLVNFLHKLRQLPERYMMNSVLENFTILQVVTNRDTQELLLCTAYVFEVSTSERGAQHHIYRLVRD

| inhibition at 10 µM [%] | % of inhibition of TEAD2 palmitoylation at 10 μM | Compound |
| --- | --- | --- |
| 62 |  | CCCCN(CCCC)c1ccc(NC(=O)c2ccc(Nc3ccccc3C(=O)O)cc2)cc1 [Compound 170] |
| 75 |  | CCN(c1ccc(N(C)c2ccc(C34CC5CC(CC(C5)C3)C4)cc2)cc1)c1ccccc1C(=O)O [Compound 171] |
| 100 |  | CN(c1ccc(Nc2ccccc2C(=O)O)cc1)c1ccc(C23CC4CC(CC(C4)C2)C3)cc1 [Compound 172] |
| 51 |  | Cn1c(-c2ccc(Nc3ccc(C45CC6CC(CC(C6)C4)C5)cc3)cc2)nc2cccc(C(=O)O)c21 [Compound 173] |
| 85 |  | CCCCN(c1ccccc1)c1ccc(Nc2ccc(Nc3ccccc3C(=O)O)cc2)cc1 [Compound 174] |
| 70 |  | CCCCN(CCCC)C(=O)c1ccc(Nc2ccc(Nc3ccccc3C(=O)O)cc2)cc1 [Compound 175] |
|  | 89% | O=C(NC12CC3CC(CC(C3)C1)C2)c1ccc(Nc2ccc(Nc3ccccc3C(=O)O)cc2)cc1 [Compound 176] |
| 56 |  | CC12CC3CC(C)(C1)CC(c1ccc(Nc4ccc(Nc5ccccc5C(=O)O)cc4)cc1)(C3)C2 [Compound 177] |
| 81 |  | O=C(Nc1ccc(Nc2ncccc2C(=O)O)cc1)Nc1ccc(C23CC4CC(CC(C4)C2)C3)cc1 [Compound 180] |
| 49 | 41% | O=C(CNc1ccc(Nc2ncccc2C(=O)O)cc1)Nc1ccc(C23CC4CC(CC(C4)C2)C3)cc1 [Compound 181] |
| 54 |  | O=C(Nc1ccc(Nc2cccc(C(=O)O)n2)cc1)Nc1ccc(C23CC4CC(CC(C4)C2)C3)cc1 [Compound 182] |
| 100 | 96% | O=C(Nc1ccc(C23CC4CC(CC(C4)C2)C3)cc1Cl)c1ccc(Nc2ncccc2C(=O)O)cc1 [Compound 183] |
| 71 |  | O=C(Cc1ccc(Nc2ncccc2C(=O)O)cc1)Nc1ccc(C23CC4CC(CC(C4)C2)C3)cc1 [Compound 184] |
|  | 66% and 91% | O=C(O)c1cccc(Nc2ccc(C(=O)Nc3ccc(C45CC6CC(CC(C6)C4)C5)cc3)cc2)c1 [Compound 185] |
| 76 |  | O=C(O)c1ccccc1Nc1ccc(N(c2ccc(C34CC5CC(CC(C5)C3)C4)cc2)C(F)(F)F)cc1 [Compound 186] |
| 57 |  | CCCCN(c1ccccc1)c1ccc(N(C)c2ccc(N(C)c3ccccc3C(=O)O)cc2)cc1 [Compound 187] |
| 101 |  | O=C(O)c1cccnc1Nc1ccc(S(=O)(=O)Nc2ccc(C34CC5CC(CC(C5)C3)C4)cc2)cc1 [Compound 188] |
| 34 |  | O=C(Nc1ccc(Nc2ccccc2C(=O)O)cc1)Nc1ccc(C23CC4CC(CC(C4)C2)C3)cc1 [Compound 189] |
| 85 |  | O=C(O)c1ccccc1Nc1ccc(S(=O)(=O)Nc2ccc(C34CC5CC(CC(C5)C3)C4)cc2)cc1 [Compound 190] |
| 85 |  | CN(c1ccc(C#Cc2ccc(C34CC5CC(CC(C5)C3)C4)cc2)cc1)c1ccccc1C(=O)O [Compound 191] |
| 99 |  | CN(C(=O)c1ccc(Nc2ccccc2C(=O)O)cc1)c1ccc(C23CC4CC(CC(C4)C2)C3)cc1 [Compound 192] |
| 86 |  | CN(c1ccc(Nc2cccc(C(=O)O)n2)cc1)c1ccc(C23CC4CC(CC(C4)C2)C3)cc1 [Compound 193] |
| 20 |  | O=C(O)c1cccc(Nc2ccc(S(=O)(=O)Nc3ccc(C45CC6CC(CC(C6)C4)C5)cc3)cc2)n1 [Compound 194] |

| inhibition at 10 µM [%] | % of inhibition of TEAD2 palmitoylation at 10 μM | Compound |
| --- | --- | --- |
| 0 |  | CCCCN(c1ccccc1)c1ccc(NC(=O)c2ccc(Nc3ccccc3C(=O)O)cc2)cc1 [Compound 195] |
| 100 |  | CN(c1ccc(Oc2ccc(C34CC5CC(CC(C5)C3)C4)cc2)cc1)c1ncccc1C(=O)O [Compound 196] |
| 100 |  | O=C(Nc1ccccc1C(=O)O)c1ccc(Nc2ccc(C34CC5CC(CC(C5)C3)C4)cc2)cc1 [Compound 197] |
| 99 |  | O=C(O)c1cccc(NC(=O)c2ccc(Nc3ccc(C45CC6CC(CC(C6)C4)C5)cc3)cc2)c1 [Compound 198] |
| 6 |  | Cn1c(-c2ccc(Nc3ccc(C45CC6CC(CC(C6)C4)C5)cc3)cc2)nc2c(C(=O)O)cccc21 [Compound 199] |
| 32 |  | CN(c1ccc(N2CC(Oc3ccc(C45CC6CC(CC(C6)C4)C5)cc3)C2)cc1)c1ccccc1C(=O)O [Compound 200] |
| 43 |  | CC12CC3CC(C)(C1)CC(c1ccc(Nc4ccc(Nc5cccc(C(=O)O)n5)cc4)cc1)(C3)C2 [Compound 201] |
| 49 |  | CCCCN(c1ccccc1)c1ccc(Nc2ccc(Nc3cccc(C(=O)O)n3)cc2)cc1 [Compound 202] |
| 95 |  | O=C(O)c1cccc(Nc2ccc(Oc3ccc(C45CC6CC(CC(C6)C4)C5)cc3Cl)cc2)n1 [Compound 203] |
| 99 |  | CN(c1ccc(N(c2ccc(C(=O)O)cn2)c2ccc(C(=O)O)cn2)cc1)c1ccc(C23CC4CC(CC(C4)C2)C3)cc1 [Compound 204] |
| 74 |  | O=C(O)c1ccccc1Nc1ccc(Nc2ccc(OCC34CC5CC(CC(C5)C3)C4)cc2)cc1 [Compound 205] |
| 52 |  | CN(C(=O)c1ccc(Nc2cccc(C(=O)O)n2)cc1)c1ccc(C23CC4CC(CC(C4)C2)C3)cc1 [Compound 206] |
| 99 |  | CN(c1ccc(C23CC4CC(CC(C4)C2)C3)cc1)S(=O)(=O)c1ccc(Nc2ncccc2C(=O)O)cc1 [Compound 207] |
| 100 |  | CN(c1ccc(OCC23CC4CC(CC(C4)C2)C3)cc1)c1ccc(N(C)c2ccccc2C(=O)O)cc1 [Compound 208] |
| 54 |  | CC(C)c1ccccc1-c1ccc(Nc2ccc(Nc3cccc(C(=O)O)n3)cc2)cc1 [Compound 209] |
| 100 |  | Cn1c(-c2cccc(Nc3ccc(C45CC6CC(CC(C6)C4)C5)cc3)c2)nc2cccc(C(=O)O)c21 [Compound 210] |
| 67 |  | CC(C)c1ccccc1-c1ccc(NC(=O)c2ccc(Nc3ccccc3C(=O)O)cc2)cc1 [Compound 211] |
| 77 |  | O=C(Nc1ccc(C23CC4CC(CC(C4)C2)C3)cc1)c1ccc(Oc2cccc(C(=O)O)n2)cc1 [Compound 212] |
| 90 |  | O=C(Cc1ccc(Nc2ccc(C34CC5CC(CC(C5)C3)C4)cc2)cc1)Nc1ccccc1C(=O)O [Compound 213] |
| 88 | 73% | O=C(Nc1ccc(C23CC4CC(CC(C4)C2)C3)cc1)c1cccc(Nc2ccccc2C(=O)O)c1 [Compound 214] |
| 87 |  | O=C(Nc1ccc(C23CC4CC(CC(C4)C2)C3)cc1)c1ccc(Oc2ccccc2C(=O)O)cc1 [Compound 215] |
| 89 |  | CC12CC3CC(C)(C1)CC(c1ccc(NC(=O)c4ccc(Nc5ccccc5C(=O)O)cc4)cc1)(C3)C2 [Compound 216] |
| 55 |  | O=C(Nc1ncccc1C(=O)O)c1ccc(Nc2ccc(C34CC5CC(CC(C5)C3)C4)cc2)cc1 [Compound 217] |

| inhibition at 10 µM [%] | % of inhibition of TEAD2 palmitoylation at 10 μM | Compound |
| --- | --- | --- |
| 0 |  | CN(c1ccc(N2CCN(c3ccc(C45CC6CC(CC(C6)C4)C5)cc3)CC2)cc1)c1ccccc1C(=O)O [Compound 218] |
| 0 |  | O=C(NC12CC3CC(CC(C3)C1)C2)c1ccc(Nc2ccc(Nc3cccc(C(=O)O)n3)cc2)cc1 [Compound 219] |
| 10 |  | O=C(CCc1ccc(Nc2ccccc2C(=O)O)cc1)Nc1ccc(C23CC4CC(CC(C4)C2)C3)cc1 [Compound 220] |
| 61 |  | CN(C(=O)c1ccc(Nc2ccc(C34CC5CC(CC(C5)C3)C4)cc2)cc1)c1ccccc1C(=O)O [Compound 221] |
| 45 |  | CC12CC3CC(C)(C1)CC(c1ccc(NC(=O)c4cccc(Nc5ccccc5C(=O)O)c4)cc1)(C3)C2 [Compound 222] |
| 100 |  | O=C(O)c1ccccc1NS(=O)(=O)c1ccc(Nc2ccc(C34CC5CC(CC(C5)C3)C4)cc2Cl)cc1 [Compound 223] |
| 81 |  | CC(C)c1ccccc1-c1ccc(NC(=O)c2cccc(Nc3ccccc3C(=O)O)c2)cc1 [Compound 224] |
| 84 |  | O=C(Nc1ccc(C23CC4CC(CC(C4)C2)C3)cc1)c1ccc(C(=O)Nc2ccccc2C(=O)O)cc1 [Compound 225] |
| 17 |  | CC(C)N(c1ccc(N(C)c2ccc(C34CC5CC(CC(C5)C3)C4)cc2)cc1)c1ccccc1C(=O)O [Compound 226] |
| 58 |  | CC12CC3CC(C)(C1)CC(c1ccc(NC(=O)c4ccc(Nc5cccc(C(=O)O)n5)cc4)cc1)(C3)C2 [Compound 227] |
| 89 |  | O=C(Nc1ccccc1C(=O)O)c1ccc(Nc2ccc(C34CC5CC(CC(C5)C3)C4)cc2Br)cc1 [Compound 228] |
| 91 |  | O=C(Nc1ccccc1C(=O)O)c1ccc(Nc2ccc(C34CC5CC(CC(C5)C3)C4)cc2Cl)cc1 [Compound 229] |
| 0 |  | CN(c1cccc(C(=O)Nc2ccc(C34CC5CC(CC(C5)C3)C4)cc2)c1)c1ccccc1C(=O)O [Compound 230] |
| 0 |  | CN(c1ccc(S(=O)(=O)N(C)c2ccc(C34CC5CC(CC(C5)C3)C4)cc2)cc1)c1ncccc1C(=O)O [Compound 231] |
| 33 |  | CN(c1ccc(Nc2cccc(C(=O)NC34CC5CC(CC(C5)C3)C4)c2)cc1)c1ccccc1C(=O)O [Compound 232] |
| 9 |  | CN(c1ccc(N(C)c2ccccc2C(=O)O)cc1)c1cccc(C(=O)NC23CC4CC(CC(C4)C2)C3)c1 [Compound 233] |
| 64 |  | O=C(Nc1ccc(C23CC4CC(CC(C4)C2)C3)cc1)c1cccc(Nc2ncccc2C(=O)O)c1 [Compound 234] |
| 84 |  | O=C(O)c1cccc(Nc2cccc(C(=O)Nc3ccc(C45CC6CC(CC(C6)C4)C5)cc3)c2)c1 [Compound 235] |
| 62 |  | CC(C)c1ccccc1-c1ccc(Oc2ccc(N(C)c3ccccc3C(=O)O)cc2)c(Cl)c1 [Compound 236] |
| 93 |  | O=C(Nc1ccccc1C(=O)O)c1ccc(Oc2ccc(C34CC5CC(CC(C5)C3)C4)cc2)cc1 [Compound 237] |
| 100 |  | COc1cccc(N(C)c2ccc(N(C)c3ccc(C45CC6CC(CC(C6)C4)C5)cc3)cc2)c1C(=O)O [Compound 238] |
